# Assay results from US9994604B2, “Pyrazolotriazolyl nucleoside analogues and oligonucleotides comprising them” (Bio-Lab Ltd., priority 2012, dated 2018).
# [APT] = modified deoxyadenosine dA^PT as named in the publication
# Legend:
# HBV = conditions: cited from earlier work
# HIV = conditions: cited from earlier work
# human platelet = conditions: cited from earlier work
# mouse leukemia cells = conditions: cited from earlier work
# [1] = tested on: oligonucleotide of SEQ ID NO: 4 (X=T); assay: CD spectra of DNA duplexes; assay type: physicochemical; conditions: 4 μM each strand, 10 mM sodium phosphate pH 7, 150 mM NaCl, 1 mM EDTA, 10° C., 220-300 nm; compared with unmodified duplex 4+5
# Source text: CD spectra of the DNA duplexes obtained from the hybridization of the oligonucleotides of SEQ ID NOs: 4+1 and 4+2, containing one or two dA^PT, respectively, were compared to that of the parent unmodified duplex obtained by hybridization of the oligonucleotides of SEQ ID NOs: 4+5.
# [2] = tested on: 24-mer single-stranded target DNA sequence of SEQ ID NO: 4 (X=T); assay: thermal denaturation (melting) studies of DNA duplexes followed by absorption spectroscopy; assay type: binding; conditions: duplex with SEQ ID NO: 4 (X=T); 1 μM each strand, 10 mM sodium phosphate pH 7, 150 mM NaCl, 1 mM EDTA; 260 nm
# Description: Oligonucleotide concentrations were 1 μM (each strand) in a 10 mM sodium phosphate, pH 7, buffer containing 150 mM NaCl and 1 mM EDTA. Temperature was increased from 10° C. to 80° C. over 140 min. Melting curves were recorded at X, =260 nm.
# The influence of dA replacement (one or two) by the pyrazolo[1,5-a]-1,3,5-triazine derivative (dA^PT) on duplex stability was investigated by thermal denaturation studies, followed by absorption spectroscopy, using DNA duplexes obtained by mixing the modified oligonucleotides of SEQ ID NOs. 1 and 2 with the 24-mer single-stranded target DNA sequence of SEQ ID NO: 4 (X=T). The natural deoxyadenosine was also incorporated in the same positions (SEQ ID NO: 5) for comparison (duplex obtained by hybridization of the oligonucleotides of SEQ ID NOs: 4+5).
# [3] = acidic hydrolysis (stability of the glycosidic bond); assay type: physicochemical; conditions: 80% acetic acid at 65° C. for 45 hr followed by concentrated ammonium hydroxide
# Source text: In order to study the stability of the glycosidic bond of the dA^PT described above in acidic conditions, compared with that of dA, two oligonucleotides containing a single incorporation of either dA^PT (SEQ ID NO: 3) or the natural dA (SEQ ID NO: 6) were synthesized.
molecule,measurement,setting,value
"Nc1ncnc2c([C@H]3O[C@@H](CO)[C@H](O)[C@@H]3O)cnn12 [4-amino-8-(β-L-ribofuranosyl)pyrazolo[1,5-a]-1,3,5-triazine]",anti-HBV activity,HBV,no significant
same,anti-HIV activity,HIV,no significant
"CNc1nc(C)nc2c([C@H]3C[C@H](OP(=O)(O)O)[C@@H](COP(=O)(O)O)O3)cnn12 [compound 2, 8-(2′-deoxy-β-D-ribofuranosyl)-2-methyl-4-(N-methylamino)pyrazolo[1,5-a]-1,3,5-triazine-3′,5′-bisphosphate]",inhibition of ADP-induced human platelet aggregation,human platelet,strongly inhibits
same,inhibition of ADP-induced human platelet shape change,human platelet,strongly inhibits
"Nc1ncnc2c([C@@H]3O[C@H](CO)[C@@H](O)[C@H]3O)cnn12 [compound 10, 4-amino-8-(β-D-ribofuranosyl)pyrazolo[1,5-a]-1,3,5-triazine]",activity compared with formycin,mouse leukemia cells; all systems tested,more active than formycin
same,inhibitory activity against various mouse leukemia cells,mouse leukemia cells,moderate inhibitory activity
"SEQ ID NO: 1: 18-mer 5′d-(TAC CGC GTG CAA^PT CCC TCT)3′ with one dA^PT incorporation (DNA TACCGCGTGCATCCCTCT; DNA, [APT] at 12, backbone not given here)",duplex form from CD spectra,[1],still forms a B-form duplex
same,melting temperature [Tm],[2],69.6 °C
"SEQ ID NO: 2: 18-mer 5′d-(TA^PTC CGC GTG CAA^PT CCC TCT)3′ with two dA^PT incorporations (DNA TNCCGCGTGCANCCCTCT; listed as DNA, chemistry not fully specified)",duplex form from CD spectra,[1],still forms a B-form duplex
same,melting temperature [Tm],[2],69.3 °C
"SEQ ID NO: 3: 5′d-(TTC CTC TTT CTA^PT CCC TCT)3′, a sole dA^PT and no other purine (DNA TTCCTCTTTCTNCCCTCT; listed as DNA, chemistry not fully specified)",stability in acidic conditions (degradation),[3],not degraded
"SEQ ID NO: 5: unmodified 5′d-(TAC CGC GTG CAA CCC TCT)3′ with natural deoxyadenosine (DNA TACCGCGTGCAACCCTCT; DNA, backbone not given here)",melting temperature [Tm],[2],69 °C
"SEQ ID NO: 6: unmodified 5′d-(TTC CTC TTT CTA CCC TCT)3′ with natural dA (DNA TTCCTCTTTCTACCCTCT; DNA, backbone not given here)",stability in acidic conditions (degradation),[3],fully fragmented
